Where two headings read alike, the source gives them in different places.
Key:
[1] = test system: Penicillium funiculosum; assay: Determination of the MIC against fungi, agar incorporation test; format: cell-based; settings: for MIC: Talaromyces funiculosus, read-out: MIC against fungi, strain C
Method: (§1) Strains: A) Aspergillus niger, B) Sacharomyces cerevisiae, C) Penicillium funiculosum, D) Chaetomium globosum, E) Aureobasidium pullulans and F) Coniophora puteana.
(§2) The investigation is carried out by the known agar incorporation test in malt extract agar (Merck).

[2] = test system: Aureobasidium pullulans; assay: as above; format: cell-based; settings: for MIC: read-out: MIC against fungi, strain E
Method: as §1, §2

[3] = test system: Sacharomyces cerevisiae; assay: as above; format: cell-based; settings: for MIC: read-out: MIC against fungi, strain B
Method: as §1, §2

[4] = test system: Chaetomium globosum; assay: as above; format: cell-based; settings: for MIC: read-out: MIC against fungi, strain D
Method: as §1
(§3) The investigation is carried out by the known agar incorporation test in malt extract agar (Merck). For the inhibition, the various compounds are in each case added in an amount such that concentrations of 10, 50 and 100 mg/1 result in the agar. The concentrations (mg/1) required for inhibiting the growth of the fungi (starting from fungus spores dripped on) are illustrated in Table 2.

[5] = test system: Aspergillus niger; assay: as above; format: cell-based; settings: for MIC: read-out: MIC against fungi, strain A
Method: as §1, §3

[6] = test system: Coniophora puteana; assay: as above; format: cell-based; settings: for MIC: read-out: MIC against fungi, strain F
Method: as §1, §3

[7] = test system: Poria placenta; assay: Limit of activity against wood-destroying Basidiomycetes (EN 113); set-up: species or system Poria placenta (Fries) Cooke sensu. J. Eriksson; settings: Poria placenta strain 96, pine, isopropanol/water (1:1), 16 weeks
Source text: (§4) Determination of the limit of the activity against wood-destroying Basidiomycetes bred on agar (in accordance with EN 113). The test methods described in this European Standard is a laboratory method which forms a basis for evaluation of the activity of a wood preservative against wood-destroying Basidiomycetes.
Poria placenta (Fries) Cooke sensu. J. Eriksson, strain SPRL 280, for soft timbers=strain 96, Breeding of the strain and composition of the nutrient medium were as described in EN 113.
(§5) Solutions of isopropanol/water (1:1) containing 0.2%, 0.5%, 1%, 2% and 5% of active substance according to Example 1 are prepared.
(§6) The specimen woods of pine, nominal dimensions: 50 mm×25 mm×15 mm, are obtained and prepared as described in EN 113.
(§7) The impregnation according to EN 113 ensures complete thorough impregnation of the specimen woods with the wood preservative solution.
(§8) The amount of preservative absorbed is converted into weight per unit volume of the wood. […]
(§9) The limit of the activity of a wood preservative is determined by the two amounts of wood preservative which correspond to the lowest concentration which preserves the wood and the next lowest concentration in the series, at which the wood is no longer adequately preserved. […]

[8] = test system: mixture of algae Chlorella vulgaris, Chlorella spec. and Scenedesmus obliques; assay: Algicide test in polyisobutylene roof sheeting; format: cell-based; settings: for algae growth after 6 weeks: comparison film 2; for algae growth after 3 weeks: comparison film 2-3
Method: To test the activity against attack by algae, various concentrations, which can be seen from Table 3, of the compound according to Example 1 are incorporated into roof sheeting consisting of polyisobutylene. A roof sheeting without biocide is investigated as a comparison.
A 1 cm^2 piece of film from each test strip is kept in water for 5 days, in each case placed on an algae agar plate and inoculated with 0.1 ml of a 1+1+1 mixture of 14-day cultures of the algae Chlorella vulgaris and Chlorella spec. (isolated from damage cases in practice) and Scenedesmus obliques, which had been diluted 1/10 in saline.
After 3 weeks, the plates are evaluated and the films are placed in fresh agar and inoculated again.
Evaluation of the growth after 3 and 6 weeks under artificial light is performed in accordance with the following scheme.
2=partial growth on the film
3=growth up to the edge of the film
4=inhibiting aerola around the film <5 mm
5=inhibiting aerola around the film >5 mm
Example 19 is repeated, except that instead of the stated concentrations of compound according to Example 1 alone, a combination of 1% by weight of the compound according to Example 1 and 0.07% by weight of 2-methylthio-4-t-butylamino-6-cyclopropylamino-s-triazine is used.

[9] = test system: Coniophora puteana; assay: Limit of activity against wood-destroying Basidiomycetes (EN 113); set-up: species or system Coniophora puteana (Schumacher ex Fries) Karsten; settings: Coniophora puteana strain 91, pine, isopropanol/water (1:1), 16 weeks
Source text: as §4
Coniophora puteana (Schumacher ex Fries) Karsten, strain FPRL 11E, for soft timbers=strain 91, Breeding of the strain and composition of the nutrient medium were as described in EN 113.
as §5, §6, §7, §8, §9

[10] = test system: wood-destroying fungi; assay: Limit of activity against wood-destroying Basidiomycetes (EN 113), summary
Source text: as §4

[11] = test system: Gleophyllum trabeum; assay: Limit of activity against wood-destroying Basidiomycetes (EN 113); set-up: species or system Gloeophyllum trabeum (Persoon ex Fries) Murrill; settings: Gleophyllum trabeum strain 94, pine, 16 weeks
Source text: as §4
Gloeophyllum trabeum (Persoon ex Fries) Murrill, strain […], for soft timbers=strain 94, Breeding of the strain and composition of the nutrient medium were as described in EN 113.
as §5, §6, §7, §8, §9

[12] = test system: barnacles; assay: Anti-fouling paint exposure in the North Sea; settings: 61/2 weeks, 0 = completely covered with growth, 10 = completely free
Method: (§10) To test the activity against growth on objects immersed in the sea, the compound according to Example 1 is incorporated into anti-fouling paints. An anti-fouling paint such as is known to the expert and which is based on vinyl chloride copolymer/rosin (2/1 part by weight) with a pigment volume concentration of about 40%, and a second anti-fouling paint of similar make-up but with a higher rosin content (vinyl chloride copolymer/rosin=1/1) are prepared. The compound according to Example 1 is incorporated into these paints, the paint is brushed onto specimen sheets and, after drying (10 days), the sheets are suspended in the North Sea. The corresponding paints but without adding of the product are exposed in the same way for comparison. On a rating scale of 0 (=completely covered with growth) to 10 (=completely free from growth), the following results are obtained after exposure for 61/2 weeks (growth by hydroids=HY; growth by barnacles=BA): […]

[13] = test system: hydroids; assay: Anti-fouling paint exposure in the North Sea; settings: 61/2 weeks, 0 = completely covered with growth, 10 = completely free
Method: as §10

[14] = Penicillium funiculosum, malt extract agar, tested 10, 50, 100 mg/l
[15] = malt extract agar, tested 10, 50, 100 mg/l
[16] = Sacharomyces cerevisiae, malt extract agar, tested 10, 50, 100 mg/l

Q: What does the source list for CCCCCCCCCCCCCC[N+](CCC)(CCC)CCC [Example 10]?
A: MIC [1, 14]: 50 µg/mL; MIC [2, 15]: 10 µg/mL; MIC [3, 16]: 100 µg/mL; MIC [4, 15]: 50 µg/mL; MIC [5, 15]: 100 µg/mL; MIC [6, 15]: 10 µg/mL

Q: For CCCCCCCCCCCCCC[N+](CCCC)(CCCC)CCCC [Example 5, Tri-n-butyl-n-tetradecylammonium tetrafluoborate], which MIC [1, 14] is on record?
A: 50 µg/mL

Q: What about the MIC [2, 15] of the same compound?
A: 50 µg/mL

Q: What about the MIC [3, 16] of the same compound?
A: 50 µg/mL

Q: And the MIC [4, 15]?
A: 50 µg/mL

Q: What about the MIC [5] of the same compound?
A: 100 µg/mL

Q: What about the MIC [6] of the same compound?
A: 100 µg/mL

Q: What does the source list for CCCCCCCCCCCCCCCCCC[N+](CC)(CC)CC [Example 9]?
A: MIC [1, 14]: 50 µg/mL; MIC [2, 15]: 50 µg/mL; MIC [3, 16]: > 100 µg/mL; MIC [4, 15]: 50 µg/mL; MIC [5, 15]: > 100 µg/mL; MIC [6, 15]: 50 µg/mL

Q: CCCCCCCCCCCCCC[P+](CCCC)(CCCC)CCCC [Example 1, Tri-n-butyl-n-tetradecylphosphonium tetrafluoborate] was tested. Which Effective concentration [7] did it give?
A: 1.0-2.0%

Q: And the “algae growth after 6 weeks” value ([8]; 0,1 % by weight in film)?
A: 4 (inhibiting aerola around the film <5 mm)

Q: And the “algae growth after 3 weeks” value ([8]; 0,1 % by weight in film)?
A: 4 (inhibiting aerola around the film <5 mm)

Q: And the “algae growth after 6 weeks” value ([8]; 0,5 % by weight in film)?
A: 4 (inhibiting aerola around the film <5 mm)

Q: What about the “algae growth after 3 weeks” value ([8]; 0,5 % by weight in film) of the same compound?
A: 4 (inhibiting aerola around the film <5 mm)

Q: What about the “algae growth after 6 weeks” value ([8]; 1 % by weight in film) of the same compound?
A: 4 (inhibiting aerola around the film <5 mm)

Q: What about the “algae growth after 3 weeks” value ([8]; 1 % by weight in film) of the same compound?
A: 4 (inhibiting aerola around the film <5 mm)

Q: What about the MIC [1, 14] of the same compound?
A: 10 µg/mL

Q: What about the MIC [2, 15] of the same compound?
A: 50 µg/mL

Q: And the MIC [3, 16]?
A: 10 µg/mL

Q: And the “MIC against fungi, strain D” value [4, 15]?
A: 10 mg/L

Q: What about the MIC [5, 15] of the same compound?
A: 50 µg/mL

Q: And the “MIC against fungi, strain F” value [6, 15]?
A: 10 mg/L

Q: And the Effective concentration [9]?
A: 0.5-1.0%

Q: And the “activity against wood-destroying fungi” value [10]?
A: highly effective

Q: And the “Take-up (limit of the activity)” value [11]?
A: ≤ 1.0 kg/m^3

Q: And the Effective concentration ([11]; isopropanol/water (1:1))?
A: ≤ 0.2%

Q: And the “growth by barnacles (BA), rating” value ([12]; Vinyl/rosin 1:1 paint with additive, without additive BA 0)?
A: 10

Q: And the “growth by barnacles (BA), rating” value ([12]; Vinyl/rosin 2:1 paint with additive, without additive BA 5)?
A: 8

Q: And the “growth by hydroids (HY), rating” value ([13]; Vinyl/rosin 1:1 paint with additive, without additive HY 0)?
A: 4

Q: What about the “growth by hydroids (HY), rating” value ([13]; Vinyl/rosin 2:1 paint with additive, without additive HY 5) of the same compound?
A: 8

Q: Which MIC [1, 14] does the source give for CCCCCCCCCCCC[N+]1(Cc2ccccc2)CCOCC1 [Example 14] here?
A: 50 µg/mL

Q: What about the MIC [2] of the same compound?
A: 10 µg/mL

Q: And the MIC [3]?
A: > 100 µg/mL

Q: And the MIC [4]?
A: 100 µg/mL

Q: What about the MIC [5] of the same compound?
A: > 100 µg/mL

Q: And the MIC [6, 15]?
A: 50 µg/mL

Q: For CCCCCCCCCCCC[P+](c1ccccc1)(c1ccccc1)c1ccccc1 [Example 3, Triphenyl-n-dodecylphosphonium tetrafluoborate], which MIC [1] is on record?
A: 10 µg/mL

Q: What about the MIC [2] of the same compound?
A: 10 µg/mL

Q: What about the MIC [3] of the same compound?
A: 50 µg/mL

Q: And the MIC [4]?
A: 50 µg/mL

Q: And the MIC [5]?
A: 100 µg/mL

Q: And the MIC [6]?
A: 50 µg/mL

Q: Which results are given for CCCCCCCCCCCC[N+](CC)(CC)CC [Example 7]?
A: MIC [1, 14]: 50 µg/mL; MIC [2, 15]: 50 µg/mL; MIC [3, 16]: > 100 µg/mL; MIC [4, 15]: 100 µg/mL; MIC [5, 15]: > 100 µg/mL; MIC [6, 15]: 50 µg/mL

Q: With CCCCCCCCCCCCCCCC[N+](CC)(CC)CC [Example 13] as the compound, how does the MIC [1, 14] read?
A: 10 µg/mL

Q: What about the MIC [2, 15] of the same compound?
A: 50 µg/mL

Q: And the MIC [3, 16]?
A: 100 µg/mL

Q: What about the MIC [4, 15] of the same compound?
A: 100 µg/mL

Q: And the MIC [5, 15]?
A: 100 µg/mL

Q: What about the MIC [6, 15] of the same compound?
A: 10 µg/mL

Q: For CCCCCCCCCCCCCC[N+](CC)(CC)CC [Example 8], which MIC [4, 15] is on record?
A: 50 µg/mL

Q: And the MIC [5, 15]?
A: 50 µg/mL

Q: What about the MIC [6, 15] of the same compound?
A: 50 µg/mL

Q: For CCCCCCCCCCCC[N+](CCO)(CCO)Cc1ccccc1 [Example 6, Bis(hydroxyethyl)benzyl-n-dodecylammonium tetrafluoborate], which MIC [1, 14] is on record?
A: 10 µg/mL

Q: What about the MIC [2, 15] of the same compound?
A: 10 µg/mL

Q: And the MIC [3, 16]?
A: 50 µg/mL

Q: And the MIC [4, 15]?
A: 50 µg/mL

Q: And the MIC [5]?
A: > 100 µg/mL

Q: What about the MIC [6, 15] of the same compound?
A: 50 µg/mL

Q: What does the source list for CCCCCCCCCCCCCC[P+](CCCC)(CCCC)CCCC [Example 2, Tri-n-butyl-n-tetradecylphosphonium hexafluophosphate]?
A: MIC against fungi, strain C [1, 14]: 10 mg/L; MIC against fungi, strain E [2, 15]: 50 mg/L; MIC against fungi, strain B [3, 16]: 10 mg/L; MIC against fungi, strain D [4, 15]: 100 mg/L; MIC against fungi, strain A [5, 15]: 100 mg/L; MIC against fungi, strain F [6, 15]: 100 mg/L
